How the values were obtained:
Assay in all cases: relative viability (nuclei count vs DMSO), 5 days (fraction); higher = more cells survive
[1] = compound: COc1cc2ncn(-c3cc(OCc4ccccc4C(F)(F)F)c(C(N)=O)s3)c2cc1OC + CC(=O)c1c(C)c2cnc(Nc3ccc(N4CCNCC4)cn3)nc2n(C2CCCC2)c1=O [Palbociclib] (partner 0.5 µM)
How it was run: (§1)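 Relative viability equals treated-well nuclei counts divided by vehicle-well nuclei counts. Counts came from 4× images of lung cancer cell lines grown in 1536-well plates for 5 days after pin-tool dosing on the day after seeding. Dosing used one drug alone or a fixed anchor-drug dose plus five library-drug doses (not always all listed) in √10 steps, and values are medians of duplicate plates.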

[2] = compound: COc1cc2ncn(-c3cc(OCc4ccccc4C(F)(F)F)c(C(N)=O)s3)c2cc1OC + Cc1nc(Nc2ncc(C(=O)Nc3c(C)cccc3Cl)s2)cc(N2CCN(CCO)CC2)n1 [Dasatinib] (partner 0.075 µM)
How it was run: as §1

[3] = compound: COc1cc2ncn(-c3cc(OCc4ccccc4C(F)(F)F)c(C(N)=O)s3)c2cc1OC + CCNC(=O)c1noc(-c2cc(C(C)C)c(O)cc2O)c1-c1ccc(CN2CCOCC2)cc1 [Luminespib] (partner 0.01 µM)
How it was run: as §1

[4] = compound: COc1cc2ncn(-c3cc(OCc4ccccc4C(F)(F)F)c(C(N)=O)s3)c2cc1OC + CC(C)C[C@H](NC(=O)[C@H](Cc1ccccc1)NC(=O)c1cnccn1)B(O)O [Bortezomib] (partner 0.002 µM)
How it was run: as §1

| Cell Line | relative viability ([1]; first compound 0.05 µM) | relative viability ([1]; first compound 0.1581 µM) | relative viability ([1]; first compound 0.5 µM) | relative viability ([1]; first compound 1.581 µM) | relative viability ([1]; first compound 5 µM) | relative viability ([2]; first compound 0.05 µM) | relative viability ([2]; first compound 0.1581 µM) | relative viability ([2]; first compound 0.5 µM) | relative viability ([2]; first compound 1.581 µM) | relative viability ([2]; first compound 5 µM) | relative viability ([3]; first compound 0.05 µM) | relative viability ([3]; first compound 0.1581 µM) | relative viability ([3]; first compound 0.5 µM) | relative viability ([3]; first compound 1.581 µM) | relative viability ([3]; first compound 5 µM) | relative viability ([4]; first compound 0.05 µM) | relative viability ([4]; first compound 0.1581 µM) | relative viability ([4]; first compound 0.5 µM) | relative viability ([4]; first compound 1.581 µM) | relative viability ([4]; first compound 5 µM) |
| --- | --- | --- | --- | --- | --- | --- | --- | --- | --- | --- | --- | --- | --- | --- | --- | --- | --- | --- | --- | --- |
| COR-L 105 | 0.396 | 0.4 | 0.424 | 0.325 | 0.321 | 0.337 | 0.33 | 0.273 | 0.22 | 0.19 | 0.828 | 0.846 | 0.616 | 0.312 | 0.245 | 0.727 | 0.763 | 0.529 | 0.271 | 0.269 |
| LK-2 | 0.78 | 0.293 | 0.444 | 0.252 | 0.113 | 0.282 | 0.369 | 0.262 | 0.154 | 0.151 | 0.194 | 0.204 | 0.157 | 0.152 | 0.173 |  |  |  |  |  |
| NCI-H838 | 0.255 | 0.231 | 0.161 | 0.111 | 0.0913 | 0.302 | 0.291 | 0.224 | 0.255 | 0.156 | 0.301 | 0.283 | 0.128 | 0.136 | 0.114 | 0.979 | 0.776 | 0.525 | 0.132 | 0.0869 |
| SK-LU-1 | 0.404 | 0.355 | 0.349 | 0.212 | 0.214 | 0.183 | 0.198 | 0.138 | 0.146 | 0.158 | 0.223 | 0.238 | 0.203 | 0.217 | 0.193 | 1.35 | 1.14 | 0.745 | 0.292 | 0.256 |
| NCI-H2023 | 0.397 | 0.41 | 0.265 | 0.0834 | 0.0792 | 0.566 | 0.532 | 0.355 | 0.096 | 0.0804 | 0.735 | 0.679 | 0.299 | 0.0886 | 0.0831 | 0.998 | 1.24 | 0.403 | 0.0876 | 0.0864 |
| NCI-H322M | 0.519 | 0.511 | 0.457 | 0.429 | 0.484 | 0.233 | 0.263 | 0.268 | 0.27 | 0.308 | 0.837 | 1.1 | 0.759 | 0.315 | 0.288 | 1.16 | 1.45 | 1.21 | 0.878 | 0.45 |
| NCI-H1666 | 0.631 | 0.637 | 0.597 | 0.414 | 0.445 | 0.825 | 0.758 | 0.518 | 0.316 | 0.271 | 1.06 | 0.937 | 0.508 | 0.36 | 0.363 | 0.899 | 0.801 | 0.489 | 0.28 | 0.299 |
| NCI-H1648 | 0.222 | 0.309 | 0.234 | 0.273 | 0.255 |  |  |  |  |  |  |  |  |  |  |  |  |  |  |  |
| NCI-H2087 | 0.232 | 0.185 | 0.24 | 0.0808 | 0.106 | 0.8 | 0.656 | 0.583 | 0.117 | 0.075 | 0.174 | 0.177 | 0.162 | 0.14 | 0.167 | 0.768 | 0.782 | 0.484 | 0.167 | 0.131 |
| LU99A | 0.408 | 0.386 | 0.345 | 0.184 | 0.145 | 0.493 | 0.548 | 0.256 | 0.182 | 0.135 | 0.225 | 0.304 | 0.207 | 0.172 | 0.203 | 1.14 | 1.08 | 0.898 | 0.206 | 0.201 |
| HCC-366 | 0.136 | 0.372 | 0.248 | 0.0295 | 0.0149 | 0.675 | 0.67 | 0.338 | 0.0209 | 0.0192 |  |  |  |  |  | 1.12 | 1.04 | 0.646 | 0.018 | 0.0097 |
| EKVX | 0.362 | 0.438 | 0.371 | 0.248 | 0.219 | 0.661 | 0.604 | 0.425 | 0.271 | 0.224 | 1 | 1.01 | 0.64 |  | 0.578 | 1.1 | 0.773 | 0.991 | 0.195 | 0.487 |
| NCI-H522 | 0.886 | 0.866 | 0.842 | 1.01 | 0.401 | 0.937 | 0.846 | 0.814 | 0.628 | 0.369 | 1.1 | 0.899 | 1.16 | 0.787 | 0.737 |  |  |  |  |  |
| NCI-H1755 | 0.452 | 0.442 | 0.429 | 0.316 | 0.328 | 0.445 | 0.402 | 0.315 | 0.222 | 0.207 | 0.463 | 0.388 | 0.474 | 0.224 | 0.181 | 0.958 | 0.965 | 0.843 | 0.355 | 0.278 |
| NCI-H650 | 0.301 | 0.335 | 0.279 | 0.188 | 0.34 | 0.468 | 0.429 | 0.32 | 0.166 | 0.261 | 0.748 | 0.759 | 0.632 | 0.118 | 0.37 | 0.89 | 0.78 | 0.512 | 0.163 | 0.214 |
| LC-2-ad | 0.457 | 0.422 | 0.401 | 0.237 | 0.194 | 0.639 | 0.594 | 0.201 | 0.123 | 0.133 | 0.759 | 0.857 | 0.515 | 0.293 | 0.29 | 0.866 | 0.516 | 0.399 | 0.108 | 0.106 |
| NCI-H1793 | 0.229 | 0.357 | 0.233 | 0.247 | 0.177 | 0.379 | 0.382 | 0.3 | 0.15 | 0.141 | 0.163 | 0.194 | 0.176 | 0.15 | 0.128 |  |  |  |  |  |
| HCC-827 | 0.442 | 0.391 | 0.486 | 0.424 | 0.217 | 0.321 | 0.359 | 0.222 | 0.293 | 0.292 | 0.335 | 0.683 | 0.372 | 0.194 | 0.161 | 1.06 | 0.98 | 1.02 | 0.776 | 0.508 |

From the supplement of paper PMC10307832
